The subject of the data set is patients with first-line advanced pancreatic cancer. The data set can be described thus: randomized controlled Phase 2b clinical trial of TH-302 in combination with gemcitabine vs gemcitabine alone (NCT01144455). As for the experimental part: (§1) The clinical trial was conducted as a multi-center, randomized, controlled, dose-ranging, Phase 2b crossover clinical trial of TH-302 in combination with gemcitabine in patients with first line advanced pancreatic cancer. The primary endpoint of the trial was progression-free survival. The secondary endpoints were overall response rate, overall survival, change in CA 19-9 as well as various other efficacy and safety parameters. Tumor response was evaluated at baseline and every eight weeks using RECIST. Patients for whom monotherapy with gemcitabine is considered standard therapy were eligible for the trial. Patients were randomized equally into one of three cohorts: TH-302 at a dose of 240 mg/m^2 plus gemcitabine, TH-302 at a dose of 340 mg/m^2 plus gemcitabine, or gemcitabine alone. Patients who successfully completed six cycles of treatment without evidence of significant treatment-related toxicity or progressive disease could continue to receive treatment. If a patient experienced cancer progression on gemcitabine alone, the patient could cross over and be randomized into one of the TH-302 plus gemcitabine cohorts. The primary efficacy analysis was performed based upon 149 investigator-assessed PFS events and per protocol pooled the data from the two gemcitabine plus TH-302 dose groups in the comparison to gemcitabine alone.
In a separate Phase 2b trial, TH-302 was administered intravenously for 30 to 60 minutes on days 1, 8 and 15 of a 28 day cycle at either 240 mg/m^2 or 340 mg/m^2. Gemcitabine was dosed according to its package insert on days 1, 8 and 15 of a 28 day cycle. The 214 patient randomized controlled Phase 2b clinical trial compared the efficacy and safety of these two doses (240 mg/m^2 and 340 mg/m^2) of TH-302 in combination with gemcitabine to gemcitabine alone in patients with first-line advanced pancreatic cancer.
as §1, with “CA19-9” for “CA 19-9”, “over” for “over and be randomized”
This example is an update of the open-label, multicenter, randomized, Phase 2b study (NCT01144455) of two dose levels of TH-302 in combination with gemcitabine vs gemcitabine alone. The update was conducted in September 2012 and including a further follow-up of the data provided in Example 2.
Patients were stratified according to their disease stage (unresectable locally advanced vs distant metastases) and randomized as shown in FIG. 4.

For the molecule `Cn1c(COP(=O)(NCCBr)NCCBr)cnc1[N+](=O)[O-]` [TH-302, (2-bromoethyl)({[(2-bromoethyl)amino][(2-nitro-3-methylimidazol-4-yl)methoxy]phosphoryl})-amine], the “improvement in median PFS” value (TH-302 treated groups (combined) vs gemcitabine alone) is “about 2 months”. In addition, the “Skin and mucosal toxicities related to TH-302” value (in combination with gemcitabine) is “dose dependent but not dose limiting”. Also, the “median PFS” value (two groups (combined) that received TH-302 at different doses plus gemcitabine, FIG. 2A) is 5.6 months.
As to `Nc1ccn([C@@H]2O[C@H](CO)[C@@H](O)C2(F)F)c(=O)n1` [gemcitabine], the response rate (gemcitabine alone arm, primary analysis) is reported as 12%. Also, the “median progression-free survival (PFS)” value (gemcitabine alone, primary analysis) turned out to be 3.6 months. Where the note is “human, in vivo”, the “Median time to CA 19-9 response, months (range)” value was 1.8 (0.9-5.6) months; the “Patients with AEs, (%): Any rash” value is on record as 16%; the “Patients with AEs, (%): Pyrexia” value was determined as 23%; the “Patients with AEs, (%): Stomatitis” value came to 7%. The “Mean CA 19-9 nadir change” value (patients with baseline > upper limit of normal and at least one post-baseline assessment) was −523 U/mL. Further, under “percent of patients”, the “CA 19-9 decrease >20%, (%)” value came out at 68%; the “CA 19-9 decrease >50%, (%)” value amounted to 52%; the “CA 19-9 decrease >90%, (%)” value turned out to be 16%. Under “update September 2012”, the 6-month survival rate came to 57%; the 12-month survival rate amounted to 26%; the “Disease control (CR, PR, plus stable disease)” value was 67 % of patients; the “Grade 3/4 febrile neutropenia” value is on record as 0 % of patients. Further, for the setting “update September 2012”, the “Objective best (unconfirmed) response (CR plus PR)” value was 10 % of patients, the “Treatment-emergent Grade 3/4 neutropenia” value is listed as 16 % of patients and the “Treatment-emergent Grade 3/4 thrombocytopenia” value worked out at 10%. Where the note is “update September 2012, FIG. 5A”, the “median PFS” value is 3.6 months. Further, the “Median OS” value (update September 2012, FIG. 5B) came out at 6.9 months.

The record behind these values is patent US20170232017A1, “TREATMENT OF CANCER” (Threshold Pharmaceuticals, Inc., priority 2012, published 2017).
